pKd: −log10 of the molar value. Read-outs that look alike come from different tables or passages of the source.
Experiments:
[1] = Solubility of secondary probes in labeling buffer; type: physicochemical; conditions: 0.2 M NH4Ac; for maximum soluble concentration / increase in solubility compared to the 15-mer HP18: pH 5.5, 25 °C; for maximum soluble concentration: heated 95 °C 5 min, 18-h static incubation, centrifugation, UV 260 nm of supernatant, highest concentration with at least 95% still soluble, duplicates
Method: However, as we moved to shorter PNA oligomers, solubility saw a substantial, nonlinear increase. […] For example, at 25 °C, the maximum soluble concentration of HP17 (12-mer) was around 6 μM. […]
pH 5.5 at 25°C. Dilution series of HPLC-purified and lyophilized secondary probes (1, 3, 6, 9, 13, 26, 39, 52 and 65 µM) for […]
samples were heated at 95°C for five minutes and concentration of the soluble fraction was determined by UV absorption at 260 nm before (grey bars), and after (black bars) an 18-hour static incubation at 25°C. Duplicates were prepared of all samples and the data is presented as the mean ± SD. The maximum soluble concentration of each probe, indicated in panels A-E as a dotted line, was defined as the highest concentration at which at least 95% is still in the soluble fraction after an 18-hour incubation at 25°C. PNA-aggregates are temperature-labile, as exemplified in panel C for 82 µM HP17.
After an 18-hour incubation 25°C, 6 µM is left in the soluble fraction (left black bar) but heating the sample at 95 °C for five minutes completely redissolved HP17 aggregates into solution (right black bar).
(§1) (1 picture or pasted object on this page, not shown here)
Supplementary Material and methods
Solubility of secondary probes
HPLC-purified and freeze-dried secondary probes were resuspended in 10 mM NaAc, pH 3.5-3.6 and freeze-dried in smaller aliquots. The secondary probes were re-dissolved in 0.2 M NH4Ac, pH 5.5, and the samples were heated at 95 °C for five minutes to ensure complete dissolvement. Dilution series of secondary probes (1, 3, 6, 9, 13, 26, 39, 52 and 65 μM) for […]
NH4Ac, pH 5.5. The samples were then left for an 18-hour static incubation at 25 C, before being centrifugated at 21,100 x g for 5 minutes on a standard benchtop centrifuge (Eppendorf). The supernatants were transferred to fresh 1.5 mL Eppendorf-tubes, and the […]

[2] = test system: HP15; test: UV melting of PNA:PNA duplex with primary probe HP15; type: physicochemical; conditions: UV 260 nm, 20-95 °C at 1 °C/min, 5 μM each probe, 10 mM phosphate buffer, 10 mM KCl, pH 7.4
Method: (§2) The melting temperatures of secondary probes after duplex formation with primary probes were also measured by monitoring the absorbance at 260 nm as a function of temperature (see Figure S23). All probe pairs had melting temperatures well above 37 °C (body temperature) and ranged from 51 °C for the HP6:HP19 pair with 6 complementary bases to 82 °C for the previously studied HP15:HP18 pair with 15 complementary bases (see Figure 3B and Table 2). […] This secondary structure is typically adopted by antiparallel and L-amino acid-modified PNA–PNA duplexes at neutral pH.[49]
(§3) Figure S23: Normalized temperature melting profiles from 20–95°C for different primary and secondary probe pairs. UV melting curves at 260 nm. (A) HP15 (15-mer) toward secondary 15-, 12- and 9-mers. (B) HP12 (12-mer) toward secondary 12-, 9-, 8-, 7- and 6-mers. (C) HP9 (9-mer) toward secondary 9-, 8-, 7- and 6-mers. (D) HP6 (6-mer) toward secondary 6-mer.
(§4) Concentrations of duplexes in A–D are 5 μM in 10 mM […] with 10 mM KCl at pH 7.4.
(§5) (also on this page, place not known: Fraction melted Fraction meltedFraction melted Fraction melted) […]
(§6) Supplementary Material and methods […]
(§7) Biophysical characterization of PNA:PNA duplexes using CD Spectroscopy and […]
(§8) Circular dichroism (CD) and UV melts of PNA:PNA duplexes were measured on a CD spectrometer (Applied Photophysics, Leatherhead, UK) with Peltier temperature control and an external temperature probe. […]
(§9) from 20°C to 95°C with a 1°C/min temperature gradient. Simultaneously, the UV absorbance at 260 nm was recorded as a function of temperature. Fraction melted data was calculated […]
(§10) Fraction melted = 1 ― UVds― UVss , where UVss and UVds are the UV absorbances at 95°C and 20°C, respectively. The melting temperature (Tm) was determined as the maximum of the first derivative of the melting curve and was computed using the Global 3 analysis software (Applied Photophysics, […]
CD spectra in the range of 200–300 nm were recorded for all hybridized PNA:PNA pairs at 20°C before and after the UV melting experiments. […]

[3] = molecular target: Z-HP15; conditions: SPR, primary probe HP15; cited from earlier work
Excerpt: Table 2 Dissociation Rate Constants (kds) and Melting Temperatures (Tms) of the PNA Probe Duplexes ^a | column: kd (s^–1)

[4] = molecular target: Z-HP15; test: SPR off-rate screening (single-cycle kinetics), immobilized Z-HP15; type: binding; conditions: primary probe HP15 (immobilized Z-HP15), 25 °C, PBS-T pH 7.4, 120 nM HP16/HP20 or 362 nM HP21/HP19, dissociation 150 min, 1:1 model, duplicates
Method: (§11) The stability of new pretargeting probe combinations was assessed using SPR, and duplex melting temperatures were measured with UV–vis spectroscopy. In SPR, a high concentration of the secondary probe was injected over immobilized primary agents, and the dissociation of the hybridized complexes was monitored over 150 min (see Figures 3A, S22, and Table 2).
(§12) We utilized SPR on a Biacore T200 instrument (Cytiva) to examine how secondary PNA probes (6-mer HP19, 7-mer HP21, 8-mer HP20, and 9-mer HP16) bind to primary agents. These experiments were conducted using dextran-coated CM5 sensor chips and PBS-T buffer at pH 7.4. The ligands were immobilized through a standard EDC/NHS coupling method, and the chip surface was sealed with ethanolamine. A reference surface with no primary agent was also included.
(§13) For ranking the off-rate (kd) of the secondary probes, we employed single-cycle kinetics (SCK) at 25 °C with a flow rate of 50 μL/min. […] Secondary PNA probes were injected at various concentrations, and dissociation was monitored for 10,000 s. To regenerate the chip surface, we used two 30 s injections of 10 mM glycine-HCl, pH 1.5.
(§14) All SPR experiments were performed in duplicate, and data analysis was conducted using the Biacore T200 Evaluation software version 2.0 with a 1:1 binding model.
(§15) Figure S22: Representative SPR sensorgrams of the dissociation phase of HP16 (9-mer), HP20 (8-mer), HP21 (7-mer) and HP19 […]
(§16) After injection with the secondary probe
(§17) (120 nM of HP16 and HP20 or 362 nM of HP21 and HP19) the dissociation of the formed complex was followed for 150 minutes. All experiments were done in duplicates, and the data presented is double-referenced (reference channel and buffer injection are subtracted).
as §1

[5] = molecular target: Z-HP12; test: SPR off-rate screening (single-cycle kinetics), immobilized Z-HP12; type: binding; conditions: primary probe HP12 (immobilized Z-HP12), 25 °C, PBS-T pH 7.4, 120 nM HP16/HP20 or 362 nM HP21/HP19, dissociation 150 min, 1:1 model, duplicates
Method: as §11, §12, §13, §14, §15, §16, §17, §1

[6] = molecular target: Z-HP9; test: SPR off-rate screening (single-cycle kinetics), immobilized Z-HP9; type: binding; conditions: primary probe HP9 (immobilized Z-HP9), 25 °C, PBS-T pH 7.4, 120 nM HP16/HP20 or 362 nM HP21/HP19, dissociation 150 min, 1:1 model, duplicates
Method: as §11, §12, §13, §14, §15, §16, §17, §1

[7] = test system: HP12; test: UV melting of PNA:PNA duplex with primary probe HP12; type: physicochemical; conditions: UV 260 nm, 20-95 °C at 1 °C/min, 5 μM each probe, 10 mM phosphate buffer, 10 mM KCl, pH 7.4
Method: as §2, §3, §4, §5, §6, §7
(§18) Circular dichroism (CD) and UV melts of PNA:PNA duplexes were measured on a CD spectrometer (Applied Photophysics, Leatherhead, UK) with Peltier temperature control and an external temperature probe. RP-HPLC purified and lyophilized PNA probes were dissolved in 10 mM phosphate buffer with 10 mM KCl at pH 7.4. Samples contained both primary and complementary secondary PNA probes at a final concentration of 5 µM for each probe. These samples were initially heated to 95°C for five minutes, allowed to cool to room temperature, and then transferred to a quartz cuvette with a 1.0 cm path length. A temperature probe was inserted into the solution through the cuvette's rubber cap. […]
as §9, §10
(§19) CD spectra in the range of 200–300 nm were recorded for all hybridized PNA:PNA pairs at 20°C before and after the UV melting experiments. All CD spectra were baseline subtracted and presented as an average of five scans.

[8] = test system: HP9; test: UV melting of PNA:PNA duplex with primary probe HP9; type: physicochemical; conditions: UV 260 nm, 20-95 °C at 1 °C/min, 5 μM each probe, 10 mM phosphate buffer, 10 mM KCl, pH 7.4
Method: as §2, §3, §4, §5, §6, §7, §18, §9, §10, §19

[9] = test system: Z-HP9; test: Multicycle kinetic SPR, immobilized Z-HP9; type: binding; conditions: MCK SPR
Method: as §12
Association and dissociation times were set at 700 and 1800 s, respectively, with regeneration accomplished through a 30 s injection of 10 mM glycine-HCl, pH 1.5.
as §14

[10] = test system: HP6; test: UV melting of PNA:PNA duplex with primary probe HP6; type: physicochemical; conditions: UV 260 nm, 20-95 °C at 1 °C/min, 5 μM each probe, 10 mM phosphate buffer, 10 mM KCl, pH 7.4
Method: as §2
Figure S23: Normalized temperature melting profiles from 20–95°C for different primary and secondary probe pairs. UV melting curves at 260 nm. […]
as §8, §9, §10

Substance	maximum soluble concentration [1]	Tm [2]	kd [3]	increase in solubility compared to the 15-mer HP18 [1]	kd [4]	kd [5]	kd [6]	Tm [7]	Tm [8]	ka ([9]; primary probe HP9 (Z-HP9 immobilized), 25 °C, 1.4-70 nM, 1:1 model, duplicates)	pKd ([9]; primary probe HP9, 25 °C)	kd ([9]; primary probe HP9, 25 °C)	pKd ([9]; primary probe HP9, 37 °C)	ka ([9]; primary probe HP9, 37 °C)	kd ([9]; primary probe HP9, 37 °C)	Tm [10]	solubility after 5 min at 95 °C ([1]; pH 5.5, 82 µM sample reheated at 95 °C for 5 min after 18 h at 25 °C, UV 260 nm)
DOTA-AEEA-SS-atcatcaacaccagg-EEY-NH2 [HP18, 15-mer secondary PNA probe with DOTA]	3 µM	82 °C	<10^–5 ^b s^–1														
DOTA-AEEA-SS-acaccagg-EEY-NH2 [HP20, 8-mer secondary PNA probe with DOTA]	370 µM			~100 fold	1.4 × 10^–5 s^–1	1.6 × 10^–5 s^–1	2.6 × 10^–5 s^–1	66 °C	64 °C	1.2 × 10^5 M^–1 s^–1	9.26	6.6 × 10^–5 s^–1	9.10	2.2 × 10^5 M^–1 s^–1	1.7 × 10^–4 s^–1		
DOTA-AEEA-SS-accagg-EEY-NH2 [HP19, 6-mer secondary PNA probe with DOTA]					5.0 × 10^–4 s^–1	6.2 × 10^–4 s^–1	2.8 × 10^–4 s^–1	56 °C	55 °C							51 °C	
DOTA-AEEA-SS-atcaacaccagg-EEY-NH2 [HP17, 12-mer secondary PNA probe with DOTA]	6 µM	78 °C	<10^–5 ^b s^–1	approximately 2 fold				75 °C									exceeded 82 μM
DOTA-AEEA-SS-caccagg-EEY-NH2 [HP21, 7-mer secondary PNA probe with DOTA]					5.5 × 10^–5 s^–1	4.5 × 10^–5 s^–1	9.2 × 10^–5 s^–1	60 °C	60 °C								

From paper PMC11091976, “Shorter Peptide Nucleic Acid Probes Improve Affibody-Mediated Peptide Nucleic Acid-Based Pretargeting” (ACS Pharmacology & Translational Science, 2024)
